Laboratory results taken from the supplement of paper PMC10307832.

Legend:
Test in all cases: relative viability (nuclei count vs DMSO), 5 days (fraction); higher = more cells survive
[1] = compound: COC1=CC(c2cc3ccccc3[nH]2)=N/C1=C\c1[nH]c(C)cc1C [Obatoclax] + CS(=O)(=O)N1CCN(Cc2cc3nc(-c4cccc5[nH]ncc45)nc(N4CCOCC4)c3s2)CC1 [Pictilisib] (partner 1 µM)
In short: (§1)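 Lung cancer cell lines were pin-tool dosed in 1536-well plates on the day after seeding, with either a lone drug or a fixed anchor-drug dose plus five library-drug doses (not always all listed) in √10 steps. Nuclei were counted on 4× images after 5 days. Relative viability is the ratio of treated-well to vehicle-well nuclei counts, with each value a median of duplicate plates.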

[2] = compound: CC(C)C[C@H](NC(=O)[C@H](Cc1ccccc1)NC(=O)c1cnccn1)B(O)O [Bortezomib] + COc1cccc2cc(-c3nc([C@H]4CC[C@H](C(=O)O)CC4)n4ncnc(N)c34)[nH]c12 [OSI-027] (partner 0.5 µM)
In short: as §1

[3] = compound: CC1=CC(=NN1)NC2=CC(=NC(=N2)/C=C/C3=CC=CC=C3)N4CCN(CC4)C + CS(=O)(=O)CCNCc1ccc(-c2ccc3ncnc(Nc4ccc(OCc5cccc(F)c5)c(Cl)c4)c3c2)o1 [Lapatinib] (partner 2 µM)
In short: as §1

[4] = compound: CC(C)C[C@H](NC(=O)[C@H](Cc1ccccc1)NC(=O)c1cnccn1)B(O)O [Bortezomib] + O=C(CCCCCCC(=O)Nc1ccccc1)NO [Vorinostat] (partner 1 µM)
In short: as §1

Cell Line | relative viability ([1]; first compound 0.01 µM) | relative viability ([1]; first compound 0.03162 µM) | relative viability ([1]; first compound 0.1 µM) | relative viability ([1]; first compound 0.3162 µM) | relative viability ([1]; first compound 1 µM) | relative viability ([2]; first compound 0.0002 µM) | relative viability ([2]; first compound 0.000632 µM) | relative viability ([2]; first compound 0.002 µM) | relative viability ([2]; first compound 0.006325 µM) | relative viability ([2]; first compound 0.02 µM) | relative viability ([3]; first compound 0.08 µM) | relative viability ([3]; first compound 0.253 µM) | relative viability ([3]; first compound 0.8 µM) | relative viability ([3]; first compound 2.53 µM) | relative viability ([3]; first compound 8 µM) | relative viability ([4]; first compound 0.0002 µM) | relative viability ([4]; first compound 0.000632 µM) | relative viability ([4]; first compound 0.002 µM) | relative viability ([4]; first compound 0.006325 µM) | relative viability ([4]; first compound 0.02 µM)
NCI-H2170 | 0.369 | 0.278 | 0.316 | 0.334 | 0.295 | 0.688 | 0.463 | 0.69 | 0.566 | 0.182 | 0.277 | 0.255 | 0.244 | 0.199 | 0.166 | 0.746 | 0.722 | 0.972 | 0.173 | 0.121
HCC-78 | 0.179 | 0.207 | – | 0.158 | 0.2 | 0.36 | 0.352 | 0.372 | 0.385 | 0.263 | 0.673 | 1.04 | 0.87 | 0.68 | 1.27 | 0.453 | 0.447 | 0.263 | 0.281 | 0.276
PC-3 [JPC-3] | 0.794 | 0.676 | 0.819 | 0.685 | 0.834 | 0.807 | 0.824 | 0.806 | 0.446 | 0.122 | 0.445 | 0.46 | 0.466 | 0.408 | 0.368 | 0.675 | 0.82 | 0.444 | 0.22 | 0.203
EKVX | 0.426 | 0.427 | 0.507 | 0.41 | 0.355 | 0.725 | 0.672 | 0.79 | 0.605 | 0.109 | 0.191 | 0.216 | 0.226 | 0.136 | 0.0912 | 0.68 | 0.805 | 0.65 | 0.518 | 0.198
NCI-H460 | 0.401 | 0.294 | 0.136 | 0.344 | 0.329 | 0.561 | 0.478 | 0.64 | 0.126 | 0.021 | 0.909 | 0.952 | 0.943 | 0.0124 | 0.0122 | 0.668 | 0.678 | 0.857 | 0.0257 | 0.0172
NCI-H1793 | 0.288 | 0.306 | 0.388 | 0.297 | 0.296 | 0.278 | 0.213 | 0.272 | 0.223 | 0.145 | 0.528 | 0.566 | 0.656 | 0.1 | 0.0979 | 0.689 | – | 0.682 | 0.381 | 0.125
NCI-H727 | 0.33 | 0.456 | 0.701 | 0.339 | 0.253 | 0.557 | 0.515 | 0.494 | 0.467 | 0.378 | 0.744 | 0.525 | 0.805 | 0.494 | 0.193 | 1.29 | 1.06 | 1.36 | 1.1 | 1.02
NCI-H838 | 0.52 | 0.508 | 0.421 | 0.35 | 0.247 | 0.355 | 0.363 | 0.44 | 0.178 | 0.131 | 1.03 | 1.28 | 0.831 | 0.214 | 0.091 | 0.683 | 0.752 | 0.676 | 0.157 | 0.144
